Results published in ChEMBL document CHEMBL5370616, “Novel Nitric Oxide Donor-Azole Conjugation Strategy for Efficient Treatment of Cryptococcus neoformans Infections” (J Med Chem, 2023).
In brackets after ≈: the same amount, converted by molar mass. Activity calls are given as the source filed them. The calls are words filed in the database; no cut-off is given here.

What was measured:
[1] = test system: Cryptococcus neoformans; assay: Antifungal activity against Cryptococcus neoformans H99 assessed as reduction in fungal growth incubated for 72 hrs by CLSI protocol based microplate reader analysis; type: functional
[2] = test system: Candida albicans; assay: Antifungal activity against Candida albicans 0304103 assessed as reduction in fungal growth incubated for 48 hrs by CLSI protocol based microplate reader analysis; type: functional
[3] = test system: Candida albicans; assay: Antifungal activity against Candida albicans SC5314 assessed as reduction in fungal growth incubated for 48 hrs by CLSI protocol based microplate reader analysis; type: functional
[4] = test system: Nakaseomyces glabratus; assay: Antifungal activity against Candida glabrata 10639 assessed as reduction in fungal growth incubated for 48 hrs by CLSI protocol based microplate reader analysis; type: functional
[5] = test system: Cryptococcus neoformans; assay: Fungicidal activity against Cryptococcus neoformans H99 assessed as reduction in colony forming units at 4 to 8 ug/ml incubated upto 72 hrs by time-kill assay; type: functional, organism-based; conditions: dose 4-8 µg/ml
[6] = Drug metabolism in Cryptococcus neoformans H99 assessed as NO release by measuring green fluorescence at 8 ug/ml incubated for 12 hrs by DAF-FM DA staining based confocal laser scanning microscopy; type: ADME; conditions: dose 8 µg/ml
[7] = test system: Cryptococcus neoformans; assay: Antifungal activity against Cryptococcus neoformans H99 assessed as reduction in melanin production at 32 ug/ml by microplate analysis; type: functional, organism-based; conditions: dose 32.0 µg/ml
[8] = test system: Cryptococcus neoformans; assay: Disruption of preformed mature biofilm in Cryptococcus neoformans H99 assessed as removal of mature biofilm at 32 ug/ml incubated for 24 hrs by XTT reduction assay; type: functional; parameters: scale not given: the % may be the effect or the level left; conditions: dose 32 µg/ml
[9] = test system: Cryptococcus neoformans; assay: Inhibition of biofilm formation in Cryptococcus neoformans H99 at 0.25 ug/ml incubated for 24 hrs by XTT reduction assay; type: functional
[10] = test system: Cryptococcus neoformans; assay: Inhibition of CYP51 in Cryptococcus neoformans H99 assessed as reduction in ergosterol level at 0.125 ug/ml incubated for 24 hrs by GC-MS analysis (Rvb= 58.33%); conditions: dose 0.125 µg/ml
[11] = test system: Cryptococcus neoformans; assay: Antifungal activity against Cryptococcus neoformans H99 assessed as reduction in fungal growth at 0.25 to 8 ug/ml incubated upto 72 hrs by microplate reader analysis; type: functional, organism-based; conditions: dose 0.25-8 µg/ml
[12] = test system: Cryptococcus neoformans; assay: Inhibition of CYP51 in Cryptococcus neoformans H99 assessed as decrease in unknown sterol level at 0.125 ug/ml incubated for 24 hrs by GC-MS analysis (Rvb= 22.95%); conditions: dose 0.125 µg/ml
[13] = test system: Cryptococcus neoformans; assay: Antifungal activity against Cryptococcus neoformans H99 assessed as reduction in urease production at 8 ug/ml by microplate analysis; type: functional, organism-based; conditions: dose 8.0 µg/ml
[14] = test system: Cryptococcus neoformans; assay: Antifungal activity against Cryptococcus neoformans H99 assessed as reduction in number of colonies at 0.125 to 1 ug/ml incubated for 72 hrs by agar disk diffusion assay; type: functional; parameters: scale not given: the % may be the effect or the level left; conditions: dose 0.125-1 µg/ml
[15] = test system: Cryptococcus neoformans; assay: Fungicidal activity against Cryptococcus neoformans H99 assessed as cell death by measuring red fluorescence at 8 ug/ml incubated for 12 hrs by PI staining based confocal laser scanning microscopy; type: functional, organism-based; conditions: dose 8.0 µg/ml
[16] = test system: Cryptococcus neoformans; assay: Inhibition of CYP51 in Cryptococcus neoformans H99 assessed as increase in lanosterol level at 0.125 ug/ml incubated for 24 hrs by GC-MS analysis (Rvb= 6.24%); conditions: dose 0.125 µg/ml
[17] = test system: Cryptococcus neoformans; assay: Fungicidal activity against Cryptococcus neoformans H99 assessed as reduction in colony forming units at 8 ug/ml incubated upto 72 hrs by time-kill assay; type: functional; parameters: scale not given: the % may be the effect or the level left; conditions: dose 8 µg/ml
[18] = test system: Cryptococcus neoformans; assay: Inhibition of CYP51 in Cryptococcus neoformans H99 assessed as increase in other unknown sterol level at 0.125 ug/ml incubated for 24 hrs by GC-MS analysis (Rvb= 12.49%); conditions: dose 0.125 µg/ml
[19] = test system: Cryptococcus neoformans; assay: Disruption of preformed mature biofilm in Cryptococcus neoformans H99 assessed as removal of mature biofilm at 0.125 ug/ml incubated for 24 hrs by XTT reduction assay; type: functional; parameters: scale not given: the % may be the effect or the level left; conditions: dose 0.125 µg/ml
[20] = test system: Cryptococcus neoformans; assay: Disruption of preformed mature biofilm in Cryptococcus neoformans H99 assessed as removal of mature biofilm at 0.125 to 32 ug/ml incubated for 24 hrs in presence of 2-phenyl-4,4,5,5-tetramethylimidazoline-l-oxyl 3-oxide by XTT reduction assay; type: functional, organism-based; conditions: dose 0.125-32 µg/ml
[21] = test system: Cryptococcus neoformans; assay: Inhibition of CYP51 in Cryptococcus neoformans H99 assessed as increase in lanosterol level at 4 ug/ml incubated for 24 hrs by GC-MS analysis (Rvb= 6.24%); conditions: dose 4.0 µg/ml
[22] = test system: Cryptococcus neoformans; assay: Antifungal activity against Cryptococcus neoformans H99 assessed as reduction in fungal growth at 4 ug/ml incubated upto 72 hrs by microplate reader analysis; type: functional, organism-based; conditions: dose 4.0 µg/ml
[23] = test system: Cryptococcus neoformans; assay: Antifungal activity against Cryptococcus neoformans H99 assessed as change in internal microstructure by observing sparse capsule at 4 ug/ml incubated for 8 hrs by TEM analysis; type: functional, organism-based; conditions: dose 4.0 µg/ml
[24] = test system: Cryptococcus neoformans; assay: Inhibition of CYP51 in Cryptococcus neoformans H99 assessed as decrease in unknown sterol level at 4 ug/ml incubated for 24 hrs by GC-MS analysis (Rvb= 22.95%); conditions: dose 4.0 µg/ml
[25] = test system: Cryptococcus neoformans; assay: Inhibition of CYP51 in Cryptococcus neoformans H99 assessed as reduction in ergosterol level at 4 ug/ml incubated for 24 hrs by GC-MS analysis (Rvb= 58.33%); conditions: dose 4.0 µg/ml
[26] = test system: Cryptococcus neoformans; assay: Disruption of preformed mature biofilm in Cryptococcus neoformans H99 assessed as removal of mature biofilm at 0.125 to 32 ug/ml incubated for 24 hrs by XTT reduction assay; type: functional, organism-based; conditions: dose 0.125-32 µg/ml
[27] = test system: Cryptococcus neoformans; assay: Inhibition of CYP51 in Cryptococcus neoformans H99 assessed as increase in other unknown sterol level at 4 ug/ml incubated for 24 hrs by GC-MS analysis (Rvb= 12.49%); conditions: dose 4.0 µg/ml
[28] = test system: Cryptococcus neoformans; assay: Antifungal activity against Cryptococcus neoformans H99 assessed as change in internal microstructure by observing cell membrane damage at 4 ug/ml incubated for 8 hrs by TEM analysis; type: functional, organism-based; conditions: dose 4.0 µg/ml

Compound	MIC80 [1] [µg/mL]	MIC80 [2] [µg/mL]	MIC80 [3] [µg/mL]	MIC80 [4] [µg/mL]	further results
CN(CC(O)(Cn1cncn1)c1ccc(F)cc1F)c1cc(O/N=[N+](\[O-])N2CCCC2)c([N+](=O)[O-])cc1[N+](=O)[O-] (stereo not given)	64 (≈ 114 µM)	> 64	> 64	> 64	–
CN(Cc1ccc(OCCCOc2ccc(CC(=O)O)cc2)cc1)CC(O)(Cn1cncn1)c1ccc(F)cc1F (stereo not given)	2 (≈ 3.53 µM)	–	–	–	Activity [5]: inactive
CN(Cc1ccc(OCCCOc2ccc(CC(=O)OCc3ccc(CO[N+](=O)[O-])cc3)cc2)cc1)CC(O)(Cn1cncn1)c1ccc(F)cc1F (stereo not given)	0.5 (≈ 0.683 µM)	32 (≈ 43.7 µM)	1 (≈ 1.37 µM)	1 (≈ 1.37 µM)	Drug metabolism [6]: Metabolite_Detected; Activity [7]: Active; Activity [8]: 50%; inhibition at 0.25 µg/mL [9]: > 50%; inhibition [10]: 10.7%; Activity [11]: Dose-Dependent Effect; inhibition [12]: 4.75%; Activity [13]: Active; Activity ([14]; at 0.125 to 1 µg/mL): 100%; Activity [15]: Active; inhibition [16]: 50.9%; Activity [17]: 100%; inhibition [18]: 33.6%; Activity [19]: 25%; Activity [20]: inactive
CN(Cc1ccc(OCCCOc2ccc(CC(=O)NCCOc3no[n+]([O-])c3S(=O)(=O)c3ccccc3)cc2)cc1)CC(O)(Cn1cncn1)c1ccc(F)cc1F (stereo not given)	1 (≈ 1.2 µM)	> 64	2 (≈ 2.4 µM)	1 (≈ 1.2 µM)	–
CN(Cc1ccc(OCCCOc2ccc(CC(=O)OCCCCCOc3no[n+]([O-])c3S(=O)(=O)c3ccccc3)cc2)cc1)CC(O)(Cn1cncn1)c1ccc(F)cc1F (stereo not given)	4 (≈ 4.56 µM)	> 64	4 (≈ 4.56 µM)	4 (≈ 4.56 µM)	–
CN1CCN(/[N+]([O-])=N/Oc2cc(N(C)CC(O)(Cn3cncn3)c3ccc(F)cc3F)c([N+](=O)[O-])cc2[N+](=O)[O-])CC1 (stereo not given)	64 (≈ 108 µM)	> 64	> 64	> 64	–
CCN(CC)/[N+]([O-])=N/Oc1cc(N(C)CC(O)(Cn2cncn2)c2ccc(F)cc2F)c([N+](=O)[O-])cc1[N+](=O)[O-] (stereo not given)	64 (≈ 113 µM)	> 64	> 64	> 64	–
OC(Cn1cncn1)(Cn1cncn1)c1ccc(F)cc1F [FLUCONAZOLE]	2 (≈ 6.53 µM)	> 64	0.5 (≈ 1.63 µM)	2 (≈ 6.53 µM)	inhibition [21]: 53.9%; Activity [22]: inactive; Activity [23]: inactive; inhibition [24]: 5.55%; Activity [14]: inactive; inhibition [25]: 19.2%; Activity [26]: inactive; inhibition [27]: 21.4%; Activity [28]: Active
CN(Cc1ccc(OCCCOc2ccc(CC(=O)OCCCCCO[N+](=O)[O-])cc2)cc1)CC(O)(Cn1cncn1)c1ccc(F)cc1F (stereo not given)	0.5 (≈ 0.717 µM)	> 64	1 (≈ 1.43 µM)	0.5 (≈ 0.717 µM)	–
CN(Cc1ccc(OCCCOc2ccc(CC(=O)OCc3ccccc3CO[N+](=O)[O-])cc2)cc1)CC(O)(Cn1cncn1)c1ccc(F)cc1F (stereo not given)	0.25 (≈ 0.342 µM)	> 64	1 (≈ 1.37 µM)	1 (≈ 1.37 µM)	–
CN(Cc1ccc(OCCCOc2ccc(CC(=O)O[C@H]3CO[C@H]4[C@@H]3OC[C@H]4O[N+](=O)[O-])cc2)cc1)CC(O)(Cn1cncn1)c1ccc(F)cc1F (stereo not given in full)	1 (≈ 1.35 µM)	8 (≈ 10.8 µM)	4 (≈ 5.41 µM)	0.5 (≈ 0.676 µM)	–
CN(Cc1ccc(OCCCOc2ccc(CC(=O)OCCCCOc3no[n+]([O-])c3S(=O)(=O)c3ccccc3)cc2)cc1)CC(O)(Cn1cncn1)c1ccc(F)cc1F (stereo not given)	4 (≈ 4.64 µM)	> 64	4 (≈ 4.64 µM)	4 (≈ 4.64 µM)	–
